Laboratory results reported in ChEMBL document CHEMBL3507680, “University of Dundee, Gates Library screen for HepG2 cell viability”.

Assay: Human HepG2 cell viability assay in 384 well format
Type: toxicity, cell-based
Parameters: dose 125 nL, time 70.5 hour; cytotoxicity at 70.5 h: concentration not given beside the values
Settings: HepG2 cells, read-out: Inhibition

| SMILES | cytotoxicity at 70.5 h [%] |
| --- | --- |
| c1cnc(N2CCC(c3csc(Nc4cnccn4)n3)CC2)nc1 | 12.4 |
| O=C1CCOC[C@]2(CN(Cc3ccccc3)C[C@H]2c2ccccc2)N1 | 26.7 |
| COc1ccccc1Cc1cc(O)nc(NC(C)CN(C)C)n1 (configuration not stated) | 2.81 |
| Cc1ccccc1OCCCNC(=O)C1(C)CC(=O)N2C=CC=CC2=N1 (configuration not stated) | 0.923 |
| CCC(C)(C)n1nnnc1C(c1cccs1)N1CCc2ccccc2C1 (configuration not stated) | 0.836 |
| Cc1nc(=O)c2ccccc2n1C1=CCN(CC(=O)NC(C)C)CC1 | -1.95 |
| Cc1nc(NCCN2CCCC2=O)cc(C2CN(C(C)C)CCO2)n1 (configuration not stated) | 1.39 |
| CC(C)C(=O)N1CCCC(Cc2ncccn2)C1 (configuration not stated) | -1.65 |
| CCC(=O)N1CCC(c2nc(N3CCCC3)ncc2S(C)(=O)=O)CC1 | 17.6 |
| O=C(NCCO)C1(CC2CC(c3ccc(F)cc3)=NO2)CCOCC1 (configuration not stated) | 14.1 |
| CC(=O)N1CCC(c2noc(C3CCC(=O)N3)n2)CC1 (configuration not stated) | 16.7 |
| Cc1noc(C)c1-c1nc(C2CCCN(C(=O)CN)C2)ccc1CO (configuration not stated) | -11.3 |
| Cc1c(CN2CCCC2c2cncc(CN3CCCC3)n2)cnn1C (configuration not stated) | 1.84 |
| CCn1cc(S(=O)(=O)N2CCC(C3CCCCN(C)C3=O)CC2)c(C)n1 (configuration not stated) | 7.12 |
| CC(C)c1cc(C(=O)N2CCCC(c3cc(=O)nc4n3CCC4)C2)no1 (configuration not stated) | -11.3 |
| FC(F)(F)c1cc(C2CCCN(c3cnccn3)C2)n2ccnc2n1 (configuration not stated) | -11.9 |
| CC(=O)N[C@H]1CCO[C@@H](c2cccc(NC(=O)c3ccc(=O)[nH]n3)c2)C1 | 24.6 |
| COc1ccc(NC(=O)c2cnc(C3CCN(C(C)=O)C3)nc2C)cc1 (configuration not stated) | 17.3 |
| CC1(c2ncc(CN3CCSCC3)cn2)CCCCO1 (configuration not stated) | -11.9 |
| O=C(CCn1cccn1)N1CCC(c2nnc(-c3ccsc3)o2)CC1 | -8.63 |
| CN1CCCC1c1ccnc2nccn12 (configuration not stated) | -7.34 |
| COc1nsc2nc(C3CCCN3c3ncccn3)ccc12 (configuration not stated) | -7.28 |
| O=S1(=O)NC(C2CCCN(S(=O)(=O)N3CCCC3)C2)=Nc2ccccc21 (configuration not stated) | -6.9 |

| SMILES | cytotoxicity at 70.5 h [%] |
| --- | --- |
| CC(=O)N[C@H]1CCO[C@@H](c2cccc(NC(=O)Cc3ccccc3)c2)C1 | 10.3 |
| CC1(C(N)=O)CN(S(=O)(=O)c2cccc(F)c2)CCO1 (configuration not stated) | 14.7 |
| Cc1nn(C)cc1NC(=O)CN1CCN(C2CCCC2)C(=O)C1 | -6.18 |
| CN(CCn1cncc1-c1cnc(N2CCOCC2)nc1)C1CCCC1 | -5.17 |
| O=S(=O)(c1cn[nH]c1)N1CCCC(O)(CN2CCOCC2)CC1 (configuration not stated) | -3.34 |
| Cc1c(CN2Cc3nccn3CC2c2ccccc2)cnn1C (configuration not stated) | -4.09 |
| Cc1noc(C)c1C(=O)N[C@@H]1CCC[C@@H](Oc2ccccc2)[C@@H]1O | -1.7 |
| CC(C)c1cc(C(=O)NCCc2nc(-c3cccnc3)n[nH]2)[nH]n1 | 11.1 |
| COc1ccc(C2CN(c3ncccn3)CCN2C(C)=O)cc1 (configuration not stated) | -5.51 |
| Cc1nccn1-c1nccnc1C1CCCN(C2CCCC2)C1 (configuration not stated) | 14.2 |
| Cc1cccc(Nc2noc3c2CN(C(=O)c2ccn(C)n2)CC3)c1C | 3.73 |
| Cc1cccc(C)c1Nc1noc2c1CN(C(=O)c1c[nH]nc1C)CC2 | 12.8 |
| COCC(=O)NCc1ccc(-c2ncncc2C(=O)N(C)C)cc1 | -2.25 |
| c1cc(CN2CCC[C@@H](Cn3nnc(-c4cnccn4)n3)C2)ccn1 | -2.89 |
| Cn1cc(CN2CCC(c3ncc(Cl)cc3S(C)(=O)=O)CC2)cn1 | -6.32 |
| CN1C[C@]2(CC[C@@H](C(=O)N3CCOCC3)CC2)Oc2ccccc2C1=O | -5.13 |
| CC(C)NC(=O)[C@H]1CN(Cc2ccccc2)C[C@@H]1C(=O)c1ccccc1 | -1.04 |
| O=C(O)[C@H]1CN(Cc2ccccc2)C[C@@H]1C(=O)c1ccccc1 | -3.77 |
| O=C(c1cc(C2CC2)n[nH]1)N1C[C@H]2CC[C@](O)(c3ccccc3F)[C@H]2C1 | -2.83 |
| Cc1cnc(C(=O)N2CCN(c3ncc4c(n3)CCOC4)CC2)cn1 | -1.26 |
| CCNC(=O)[C@@H]1CN(Cc2ccccc2)C[C@H]1C(=O)c1ccc(F)cc1 | -0.813 |
| COc1ccccc1OCCN(C)Cc1c(C2CC2)[nH]c2ncccc12 | 20.9 |
| CN(CCc1ccccc1)Cc1c(C2CCOCC2)[nH]c2ncccc12 | -2.01 |

| SMILES | cytotoxicity at 70.5 h [%] |
| --- | --- |
| CC(C)NC(=O)C1(Cc2ccccc2-c2ccccc2)CCCNC1 (configuration not stated) | -1.97 |
| Cc1cccc(CN2CCOCC2c2[nH]ncc2C)n1 (configuration not stated) | -2.39 |
| CN1CCCC1CCNC(=O)c1ccccc1-n1cnc(CN)c1 (configuration not stated) | 0.899 |
| Cc1nc(CC(=O)N2CCc3nc(-c4cnccn4)nc(O)c3C2)cs1 | 12.3 |
| O=C(NC(Cc1ccsc1)c1nccs1)C1CC1 (configuration not stated) | -6.11 |
| O=C1NCC2(CCCN(Cc3cccnc3)C2)Oc2ccccc21 (configuration not stated) | -7.07 |
| C=Cc1ccc(CN2CCCC3(CNC(=O)c4ccccc4O3)C2)cc1 (configuration not stated) | 8.95 |
| Cn1nc(C2CCN(C(=O)c3cccs3)CC2)c2cccnc21 | -4.94 |
| COc1cccc(CC(=O)N2CCCC(c3n[nH]c4nccnc34)C2)c1 (configuration not stated) | -10.4 |
| Fc1cccc(Cl)c1CN1CCC(c2n[nH]c3ncccc23)CC1 | 13.7 |
| Cc1ccc(CN2CCCC(c3nn(C)c4nccnc34)C2)s1 (configuration not stated) | 9.04 |
| O=C(Cc1ccsc1)N1CCC(c2n[nH]c3nccnc23)CC1 | -8.21 |
| Cc1csc(C(Cc2ccsc2)NC(=O)Cn2cccnc2=O)n1 (configuration not stated) | 14.5 |
| CCc1nc2ccccc2c(=O)n1CC1(O)CCN(CC(=O)OC)CC1 | -10.9 |
| O=C(Cn1cccnc1=O)NC(Cc1ccsc1)c1cccnc1 (configuration not stated) | -6.19 |
| CC(C)Oc1ccc(CN2CCC(c3n[nH]c4ncccc34)CC2)cc1 | 21.4 |
| COCCNC(=O)c1cc(S(=O)(=O)N2CCCCCC2)cs1 | 15.3 |
| Cc1nc(C2CCCN(C(=O)c3ccncc3)C2)c2sccn12 (configuration not stated) | 21.5 |
| Cc1cnccc1CN1Cc2ccccc2O[C@]2(CC[C@H](CO)CC2)C1 | 15.1 |
| Cc1cc(-c2cnn(CCNC(=O)CCn3cccn3)c2C2CC2)on1 | -3.81 |
| Cc1nc(C2CCN(C(=O)c3cnc(N(C)C)nc3)CC2)c2sccn12 | 1.86 |
| COCCNCc1cc2c(C)cc(C)cc2n2c(=O)n(C)nc12 | 2.41 |
| CCOCCCNCc1cc2c(C)cc(C)cc2n2c(=O)n(C)nc12 | -0.158 |

| SMILES | cytotoxicity at 70.5 h [%] |
| --- | --- |
| Cc1cccnc1C(Cc1ccsc1)NC(=O)Cn1cccnc1=O (configuration not stated) | -1.07 |
| C=Cn1ncc(CN2C[C@@H]3C[C@@H](O)CN3C[C@H]2Cc2ccccc2)c1C | -5.5 |
| CS(=O)(=O)N1CCCC(Cc2cncc(Br)c2)CC1 (configuration not stated) | -2.69 |
| CC(=O)N1CCCC(Cc2cncc(Br)c2)C1 (configuration not stated) | -1.98 |
| CN1CCC(Cc2cccc(-c3cc(F)ccc3C(=O)O)n2)CC1 | -4.18 |
| CC(C)N1CCC(Cc2cc(-c3cc(F)ccc3C(=O)O)ncn2)C1 (configuration not stated) | -3 |
| Cn1nc(C2CN(S(C)(=O)=O)C2)c2nccnc21 | 3.57 |
| CN1CCCC(CCCc2cccnc2)(C(N)=O)C1 (configuration not stated) | -3.41 |
| CC(C)Oc1ccc(C(=O)N2CC[C@H](O)[C@@H](n3ccnc3)CC2)cc1 | 18.5 |
| Cc1ncoc1C(=O)N1CC[C@@H](O)[C@@H](O)[C@H](N2CCC(F)(F)CC2)C1 | -2.42 |
| CNc1cccc(C2CCN(C(=O)c3cccnc3)CC2)n1 | -5.08 |
| Cc1cc(-c2ccccc2C(=O)O)nc(C2CCCN(C(C)C)C2)n1 (configuration not stated) | -3.8 |
| Cc1cc(C(=O)N2CCCC2c2nc(O)cc(C(C)C)n2)on1 (configuration not stated) | -5.06 |
| Cc1nc(Nc2ccccn2)cc(C2CCCN2Cc2ncc[nH]2)n1 (configuration not stated) | -6.09 |
| Cc1cc(-c2cccc(C(=O)O)c2)nc(C2CCN(C(C)C)CC2)n1 | -3.8 |
| CC(C)N1CCC(Cc2cc(-c3cccc(C(=O)O)c3)ncn2)CC1 | -4.63 |
| CC(C)C(=O)N1CCC(Cc2nccnc2Nc2ccccn2)CC1 | -5.25 |
| CC(=O)N1CCCC(c2ccc3sc(N)nc3n2)C1 (configuration not stated) | -8.18 |
| O=C(c1ccncc1)N1CCC(Cc2cnc3[nH]ccc3c2)CC1 | -5.49 |
| CNc1cccc(C2CCCN(C(=O)c3ccn(C)n3)C2)n1 (configuration not stated) | 16.5 |
| O=C(Cc1ccc2c(c1)CCCC2)N[C@@H]1CC[C@@H](n2ccnc2)[C@@H]1O | -3.88 |
| Cc1cc(-c2ccccc2C(=O)O)nc(C2CCCN(C)C2)n1 (configuration not stated) | -7.61 |
| Cc1ccccc1CNC(=O)c1ccccc1-n1cnc(CN)c1 | -0.745 |

| SMILES | cytotoxicity at 70.5 h [%] |
| --- | --- |
| O=C(c1ccccn1)N1CCC(Cc2cnc3[nH]ccc3c2)CC1 | -6.64 |
| COc1ccccc1-c1nccnc1C1CCN(C(C)=O)CC1 | -6.14 |
| COCC(=O)N1CCOC(c2cccc(-c3cncnc3)n2)C1 (configuration not stated) | -5.56 |
| CC(C)N1CCCC(Cc2cncc(Br)c2)CC1 (configuration not stated) | -4.98 |
| Cc1ccccc1-c1cncc(C2CCN(CCO)CC2)n1 | -8.45 |
| CCc1cc(O)nc(C2CCCN2C(=O)COC)n1 (configuration not stated) | -5.06 |
| Cc1ncsc1-c1nnc(C2CCN(Cc3cccc(F)c3F)CC2)o1 | 38.7 |
| CC(=O)N1CCCC1c1nc(C)no1 (configuration not stated) | 15.6 |
| CC(C)CC(=O)N1CCCC1c1nccnc1Nc1ncccn1 (configuration not stated) | 29.4 |
| CN(C)S(=O)(=O)N1CCC(c2cccc(Cc3ccccc3Cl)n2)CC1 | 18.2 |
| Cc1ccc(CC2CCCN(S(C)(=O)=O)C2)nc1 (configuration not stated) | -9.35 |
| Cc1nccn1CCCn1cncc1-c1ccc2c(c1)CC(C)N2C (configuration not stated) | 3.68 |
| O=C(c1ccnc(C2CCNCC2)c1)N1CCCC1 | 7.01 |
| CC(C)[C@H](N)C(=O)N1CCCC(C2=Nc3ccccc3S(=O)(=O)N2)C1 (some centres not stated) | -9.78 |
| Cc1nc(N)c2ccc(C3CCCN3)nc2n1 (configuration not stated) | -9.62 |
| Cn1nc(C2CCCN(Cc3ccc(F)cc3)C2)c2nccnc21 (configuration not stated) | 5.25 |
| Cn1nc(C2CCCN(Cc3cccs3)C2)c2nccnc21 (configuration not stated) | 3.16 |
| Cn1nc(C2CCCN(Cc3cc(F)ccc3F)C2)c2nccnc21 (configuration not stated) | -2.84 |
| Cc1nc2sccn2c1CN(CCCN(C)C)Cc1ccccn1 | -8.06 |
| Cc1ccc(CN(CCN(C)C)Cc2c(C)nc3sccn23)o1 | 6.95 |
